How the values were obtained:
Type in all cases: cell-based, human
[1] = tested on: Malt1; experiment: Cytokine production by ELISA in supernatants of stimulated DCs; settings: 75 µM z-VRPR-FMK
Method: (§1) Cells, stimulation, inhibition and RNA interference. This study was performed in accordance with the ethical guidelines of the Academic Medical Center. Immature DCs (iDC, day 6 and 7) were generated as described previously. In short, human blood monocytes were isolated from buffy coats by a Ficoll and a Percoll gradient and or CD14 selection by magnetic beads. Monocytes were differentiated into immature DCs in the presence of IL-4 and GM-CSFAt day 6 the phenotype of the cultured DCs was confirmed by flow cytometric analysis. 100.000 DCs were stimulated with 10 µg/ml curdlan (Sigma), heat-killed Candida spp. (multiplicity of infection (MOI) 10) and 10 ng/ml LPS from Salmonella typhosa (Sigma) in 100-150 µl medium. Dectin-2 triggering was induced by pre-incubating DCs for 2 h at room temperature with 5 µg/ml anti-dectin-2 (MAB3114; R&D Systems), followed by cross-linking on goat-anti-mouse IgG (115-006-0710; Jackson)-coated culture plates. Cells were pre-incubated with blocking antibodies or inhibitor for 2 h with 20 µg/ml anti-dectin-1 (MAB1859; R&D Systems), 20 µg/ml anti-dectin-2 (MAB3114; R&D Systems) or 75 µM z-VRPR-FMK (Malt1 inhibitor [22]; Alexis). DCs were transfected with 25 nM siRNA (SEQ ID NO:5-8) using transfection reagens DF4 (Dharmacon), and used for experiments 72 h after transfection. 'SMARTpool' siRNAs used were: Syk (M-003176-03), CARD9 (M-004400-01), Bcl10 (M-004381-02), Malt1 (M-005936-02), c-Rel (M-004768-01) and non-targeting siRNA (D-001206-13) as a control (Dharmacon). […] PCR amplification was performed with the SYBR green method in an ABI 7900HT sequence detection system (Applied Biosystems).Silencing of expression was verified by real-time PCR and flow cytometry (not shown).
Cytokine production. Cell culture supernatants were harvested after 28 h of stimulation and concentrations of IL-1β, IL-23, IL-6 (Invitrogen) and IL-12p70 (eBioscience) were determined by ELISA.

[2] = tested on: Malt1; experiment: Th17 polarization assay (primed DCs co-cultured with memory CD4+ T cells); settings: DCs pre-incubated with z-VRPR-FMK
Method: Th17 polarization assay. Memory CD4^+ T cells were isolated as described previously. Human PBMC were isolated from heparinized human peripheral blood by density gradient centrifugation on Lymphoprep (Nycomed), and PBMC were subsequently seperated in monocytes and PBL by density gradient centrifugation on Percoll (Pharmacia). Memory CD4^+ T cells were isolated with CD45R0^+-PE (Dakopatts) and anti-PE-beads (MACS). iDCs were preincubated for 2 h with inhibitors, activated for 16 h with curdlan or heat-killed Candida spp. and subsequently co-cultured with memory CD4^+ T cells as described (20,000 T cells/2000 DCs in the presence of 10 pg/ml Staphylococcus aureus enterotoxin B (Sigma). After 5 days of co-culture, supernatants were harvested and analyzed for IL-17 production by ELISA (Biosource). Cells were further cultured in the presence of 10 U/ml IL-2 (Chiron) and resting cells were restimulated after 12 days with 100 ng/ml PMA (Sigma) and 1 µg/ml ionomycin (Sigma) for 6 h, the last 5 h in the presence of 10 µg/ml brefeldin A (Sigma), and analyzed for intracellular cytokine expression by staining with biotinylated mouse anti-IL-17 (ebio64DE; eBioscience), followed by incubation with streptavidin-PE (BD Pharmingen) and FITC-conjugated mouse anti-IFN-γ (25723.11; BD).

[3] = tested on: Malt1; experiment: Immunofluorescence staining of nuclear translocation of NF-κB subunits in DCs; settings: curdlan-stimulated DCs; 75 µM z-VRPR-FMK; data not shown
Method: (§2) Cells, stimulation, inhibition and RNA interference. This study was performed in accordance with the ethical guidelines of the Academic Medical Center. Immature DCs (iDC, day 6 and 7) were generated as described previously. In short, human blood monocytes were isolated from buffy coats by a Ficoll and a Percoll gradient and or CD14 selection by magnetic beads. Monocytes were differentiated into immature DCs in the presence of IL-4 and GM-CSFAt day 6 the phenotype of the cultured DCs was confirmed by flow cytometric analysis. 100.000 DCs were stimulated with 10 µg/ml curdlan (Sigma), heat-killed Candida spp. (multiplicity of infection (MOI) 10) and 10 ng/ml LPS from Salmonella typhosa (Sigma) in 100-150 µl medium. Dectin-2 triggering was induced by pre-incubating DCs for 2 h at room temperature with 5 µg/ml anti-dectin-2 (MAB3114; R&D Systems), followed by cross-linking on goat-anti-mouse IgG (115-006-0710; Jackson)-coated culture plates. Cells were pre-incubated with blocking antibodies or inhibitor for 2 h with 20 µg/ml anti-dectin-1 (MAB1859; R&D Systems), 20 µg/ml anti-dectin-2 (MAB3114; R&D Systems) or 75 µM z-VRPR-FMK (Malt1 inhibitor [22]; Alexis). […]

[4] = tested on: Malt1; experiment: NF-κB DNA binding in nuclear extracts of stimulated DCs (TransAM NF-κB family kit); settings: curdlan-stimulated DCs; 75 µM z-VRPR-FMK, 2 h pre-incubation
Method: as §2
NF-κB DNA binding. Nuclear extracts of DCs were prepared using NucBuster protein extraction kit (Novagen) and NF-κB DNA binding determined using TransAM NF-κB family kit (Active Motif).

[5] = tested on: Malt1; experiment: Quantitative real-time PCR for cytokine mRNAs in stimulated DCs; settings: curdlan-stimulated DCs; 75 µM z-VRPR-FMK
Method: as §1
Quantitative real-time PCR. mRNA isolation, cDNA synthesis and PCR amplification with the SYBR green method in an ABI 7500 Fast PCR detection system (Applied Biosystems) were performed as described. Standard conditions according to manufacturer's instructions were used. Specific primers were designed using Primer Express 2.0 (Applied Biosystems; Supplementary Table 1). The Ct value is defined as the number of PCR cycles where the fluorescence signal exceeds the detection threshold value. For each sample, the normalized amount of target mRNA was calculated from the obtained Ct values for both target and GAPDH mRNA with Nt = 2^Ct(GAPDH)-Ct(target) The relative mRNA expression was obtained by setting Nt in curdlan-or LPS-stimulated samples at 1 within one experiment and for each donor.

[6] = more strongly than dectin-1 inhibition
[7] = DCs after C. albicans stimulation
[8] = DCs stimulated with C. albicans strain CBS8781 and CBS2712
[9] = DCs stimulated with C. lusitaniae and C. nivariensis

Q: Which results are given for “z-Valine-Arginine-Proline-DL-Arginine-FMK [z-VRPR-FMK]”?
A: C. albicans CBS2712-induced IL-1β expression [1, 6]: decreased; C. albicans CBS2712-induced IL-23 expression [1, 6]: decreased; IL-12p70 production [1, 7]: unaffected; expression of IL-6 [1, 7]: slightly upregulated; expression of IL-1β: requirement for Malt1 activation [1, 8]: required; expression of IL-23: requirement for Malt1 activation [1, 8]: required; IL-1β production [1, 9]: largely dependent on Malt1 protease activity; IL-6 expression [1, 9]: slightly enhanced; IL-12p70 [1, 9]: unaffected; IL-23 production [1, 9]: largely dependent on Malt1 protease activity; IL-1β protein expression ([1]; curdlan-stimulated DCs, 28 h): severely reduced; IL-6 expression ([1]; curdlan-stimulated DCs, 28 h): only slightly enhancing; IL-12p70 expression ([1]; curdlan-stimulated DCs, 28 h): without affecting; IL-23 protein expression ([1]; curdlan-stimulated DCs, 28 h): severely reduced; ability of DCs primed by the different Candida spp. to promote IL-17 expression in CD4+ T cells ([2]; C. albicans CBS8781, CBS2712, C. lusitaniae, C. nivariensis, intracellular IL-17 day 12): completely blocked; capacity of curdlan-primed DCs to induce IL-17 expression in CD4+ T cells ([2]; IL-17 ELISA day 5, intracellular IL-17 day 12): markedly reduced; nuclear translocation of c-Rel [3]: specifically interferes; activation of c-Rel [4]: completely abolished; activation of the other NF-κB subunits [4]: without affecting; IL-1β mRNA levels [5]: markedly reduced; IL-6 mRNA production [5]: slightly enhanced; IL-12p35 mRNA production [5]: slightly enhanced; IL-12p40 mRNA production [5]: neither dependent on Malt1 expression nor activation; IL-23p19 mRNA levels [5]: markedly reduced

From patent EP2465928A1, “Treatment of Th17-mediated diseases” (Academisch Medisch Centrum bij de Universiteit van Amsterdam, priority 2010, dated 2012)
